Laboratory results taken from patent publication US9505792B2, “Forms of cidofovir” (Johnson Matthey Public Limited Company, priority 2011, dated 2016).

Assay: Occupational exposure assessment (full monograph) of the final product
Settings: final crystalline cidofovir dihydrate product; remains within category band 5 (safebridge category 3)
Description: A full monograph for the final crystalline cidofovir dihydrate product (compound 9) has been completed and it was confirmed that, with an OEL of 0.6 μgm^−3, the product remains within category band 5 (safebridge category 3).

Nc1ccn(C[C@@H](CO)OCP(=O)(O)O)c(=O)n1 [compound 9, cidofovir dihydrate]
OEL: 0.6 μgm^−3
